Source: patent publication US8158168B2, “Anti-gastritis and anti-ulcer agent containing Momordicae semen extract and momordica saponin I isolated from the same” (SK Chemicals Co., Ltd., priority 2005, dated 2012)

Legend:
[1] = test system: stomach damage induced by diclofenac; experiment: Protective effect of momordica saponin I against stomach damage induced by diclofenac (Example 5); format: in vivo, Sprague-Dawley rats; conditions: rat, diclofenac 40 mg/kg oral and at the same time momordica saponin I 20 mg/kg or Mucosta 100 mg/kg oral; observed 4 hours later; points 0 to 3
[2] = test system: stomach damage induced by diclofenac; experiment: as above; format: in vivo, Sprague-Dawley rats; conditions: rat, diclofenac 40 mg/kg oral and at the same time momordica saponin I 20 mg/kg or Mucosta 100 mg/kg oral, observed 4 hours later; for gastric mucosa damage index ± standard deviation: Bleeding / gastric mucosa damage index ± standard deviation: Edema / gastric mucosa damage index ± standard deviation: Flare / gastric mucosa damage index ± standard deviation: Hyperemia: points 0 to 3
Experimental: Diclofenac and the test drug were administered simultaneously and the damage of gastric mucosa was observed 4 hours later. Diclofenac was dissolved in 0.5% aqueous carboxymethyl cellulose solution to […] and the test drug was prepared as in Example 2.
(§1) Seven-week-old specific pathogen free (SPF) male Sprague-Dawley rats were purchased from Charles River. After 1 week of adaptation, healthy rats with a weight of 220-225 g were selected for the test. Five rats per each group were fasted for 18 hours with drinking water freely available and diclofenac was orally administered at a dosage of 40 mg/kg and, at the same time, the test drug, or momordica saponin I, was orally administered at a dosage of 20 mg/kg and the control drug Mucosta was orally administered at a dosage of 100 mg/kg. 4 hours later, the rats were anesthetized with ether and the stomach was taken out in order to evaluate the drug's effect of treating gastritis. […] The damage of the stomach was classified into flare, congestion, hemorrhage, inflammation and edema. The severity of the damage was evaluated with points ranging from 0 to 3 (The higher the point, the severer the damage).

[3] = test system: damage of gastric mucosa induced by alcohol; experiment: Protective effect against stomach damage induced by alcohol (momordica saponin I, Example 2); format: in vivo, Sprague-Dawley rats; conditions: rat, momordica saponin I 20 mg/kg, Mucosta 100 mg/kg, 30 minutes before 1.5 mL 100% ethanol oral, observed 3 hours later; for gastric mucosa damage index ± standard deviation: Bleeding / gastric mucosa damage index ± standard deviation: Edema / gastric mucosa damage index ± standard deviation: Erosion / gastric mucosa damage index ± standard deviation: Flare / gastric mucosa damage index ± standard deviation: Hyperemia: points 0 to 3
Experimental: A rat model test was performed using 100% ethanol as stomach damage inducing factor to evaluate the protective effect of momordica saponin I for gastric mucosa. The momordica saponin I isolated in Preparative Example 5 was dissolved in 0.5% aqueous carboxymethyl cellulose solution to 2 mg/mL and was used as a test drug. Mucosta (rebamipide, Korea Otsuka Pharmaceuticals) dissolved in 0.5% aqueous carboxymethyl cellulose solution to 10 mg/mL was used as control drug.
(§2) Seven-week-old specific pathogen free (SPF) male Sprague-Dawley rats were purchased from Charles River. After 1 week of adaptation, healthy rats with a weight of 220-225 g were selected for the test. Five rats per each group were fasted for 18 hours with drinking water freely available. Momordica saponin I were administered at a dosage of 20 mg/kg and the control drug Mucosta were administered at a dosage of 100 mg/kg. After 30 minutes, 1.5 mL of 100% ethanol was orally administered. 3 hours later, the rats were anesthetized with ether and the stomach was taken out in order to evaluate the drug's effect of preventing the stomach damage. […] The damage of the stomach was classified into flare, congestion, hemorrhage, inflammation and edema. The severity of the damage was evaluated with points ranging from 0 to 3 (the higher the point, the severer the damage.).

[4] = test system: secretion of gastric acid; experiment: Gastric acid secretion inhibition test in rats (Example 6); format: in vivo, Sprague-Dawley rats; conditions: 1 hour later, gastric juice diluted 10 times with distilled water
Experimental: Momordica saponin I was orally administered to Sprague-Dawley rats and the acidity in the stomach was measured in order to evaluate the effect of momordica saponin I on the secretion of gastric acid. The momordica saponin I isolated in Preparative Example 4 was dissolved in 0.5% aqueous carboxymethyl cellulose solution to concentrations of 0.5, 1.5 and 4.5 mg/mL. 7-week-old specific pathogen free (SPF) male Sprague-Dawley rats were purchased from Charles River. After 1 week of adaptation, healthy rats with a weight of 220-225 g were selected for the test. Two rats per each group were fasted for 18 hours with drinking water freely available and momordica saponin I were administered at dosages of 5, 15 and 45 mg/kg. 1 hour later, the rats were anesthetized with ether. 0.5 mL of the gastric juice taken from the stomach was diluted 10 times with distilled water to obtain a 5 mL sample. The pH of the diluted gastric juice was measured with a pH meter.

Sprague-Dawley rats = experiment: Acute toxicity test for oral administration of momordica saponin I in rats (Example 8); format: in vivo; conditions: rat
Experimental: Acute toxicity test was performed as follows using 6-week-old specific pathogen free (SPF) Sprague-Dawley rats
To two rats per each group, the momordica saponin I isolated in Preparative Example 5 was orally administered once at a dosage of 400 mg/kg. Survival, clinical manifestations and body weight change were observed and hematological and serum biochemical analysis was performed. Autopsy was performed to observe abnormalities in abdominal and thoracic organs.

[5] = test system: stomach damage induced by diclofenac; experiment: Protective effect against stomach damage induced by diclofenac, simultaneous abdominal administration (Example 4); format: in vivo, Sprague-Dawley rats; conditions: rat, diclofenac 40 mg/kg oral and at the same time drugs 100 mg/kg abdominally, observed 6 hours later
Experimental: Differently from Example 3, diclofenac and the test drug were administered simultaneously and the damage of gastric mucosa was observed 6 hours later. In order to prevent the direct interaction between diclofenac and the test drug, the test drug was administered abdominally. Similar to that in Example 3, diclofenac and the test drug were dissolved in 0.5% aqueous carboxymethyl cellulose solution to 10 mg/mL.
as §1, with “or the Momordicae semen extract,” for “or momordica saponin I, was orally administered at a dosage of 20 mg/kg”, “control drugs Stillen and” for “control drug”, “Mucosta were abdominally” for “Mucosta was orally”, “mg/kg. 6” for “mg/kg. 4”, “to 3.” for “to 3 (The higher the point, the severer the damage).”

[6] = test system: stomach damage induced by diclofenac; experiment: Healing effect on stomach damage induced by diclofenac (Example 3); format: in vivo, Sprague-Dawley rats; conditions: rat, diclofenac 40 mg/kg oral, drugs 100 mg/kg 6 hours after, observed 18 hours later
Experimental: A rat model test was performed using diclofenac, a representative non-steroidal anti-inflammatory drug (NSAID), as stomach damage inducing factor to evaluate the effect of the Momordicae semen extract of Example 1 for treating gastritis. The Momordicae semen extract was dissolved in 0.5% aqueous carboxymethyl cellulose solution to 10 mg/mL and was used as a test drug. Stillen (artemisia extract, Dong-A Pharmaceutical) and Mucosta (rebamipide, Korea Otsuka Pharmaceuticals) dissolved in 0.5% aqueous carboxymethyl cellulose solution to 10 mg/mL were used as control drugs.
as §1, with “40 mg/kg. After 6 hours of stomach damage inducement,” for “40 mg/kg and, at”, “the Momordicae semen extract” for “the same time, the test drug, or momordica saponin I, was orally administered at a dosage of 20 mg/kg”, “control drugs Stillen and” for “control drug”, “Mucosta were” for “Mucosta was orally”, “mg/kg. 18” for “mg/kg. 4”, “to 3.” for “to 3 (The higher the point, the severer the damage).”

[7] = test system: damage of gastric mucosa induced by alcohol; experiment: Protective effect against stomach damage induced by alcohol (Momordicae semen extract, Example 1); format: in vivo, Sprague-Dawley rats; conditions: rat, drugs 100 mg/kg 1 hour before 1.5 mL 100% ethanol oral, stomach observed 6 hours later
Experimental: A rat model test was performed using 100% ethanol as stomach damage inducing factor to evaluate the protective effect of the Momordicae semen extract for gastric mucosa. The Momordicae semen extract of Preparative Example 1 was dissolved in 0.5% aqueous carboxymethyl cellulose solution to 10 mg/mL and was used as a test drug. Stillen (artemisia extract, Dong-A Pharmaceutical) and Mucosta (rebamipide, Korea Otsuka Pharmaceuticals) dissolved in 0.5% aqueous carboxymethyl cellulose solution to 10 mg/mL were used as control drugs.
as §2, with “available. The Momordicae semen extract” for “available. Momordica saponin I were administered at a dosage of 20 mg/kg”, “control drugs Stillen and” for “control drug”, “After 1 hour,” for “After 30 minutes,”, “administered. 6” for “administered. 3”, “was categorized” for “was classified”, “to 3.” for “to 3 (the higher the point, the severer the damage.).”

`CC1OC(OC2C(O)C(C(=O)O)OC(OC3CCC4(C)C(CCC5(C)C4CC=C4C6CC(C)(C)CCC6(C(=O)OC6OC(C)C(O)C(O)C6OC6OC(C)C(OC7OCC(O)C(O)C7O)C(OC7OC(CO)C(O)C(OC8OCC(O)C(O)C8O)C7O)C6O)CCC45C)C3(C)C=O)C2OC2OC(CO)C(O)C(O)C2O)C(O)C(O)C1O` [Momordica saponin I, 3-O-β-D-galactopyranosyl(1->2)-[α-L-rhamnopyranosyl(1->3)]-β-D-glucuronopyranosido-28-O-β-D-xylopyranosyl(1->3)-β-D-glucopyranosyl(1->3)-[β-D-xylopyranosyl(1->4)]-α-L-rhamnopyranosyl(1->2)-β-D-fucopyranosylgypsogenin] was tested, and the “gastric mucosa damage index ± standard deviation: Erosion” value [1] was 1.3 ± 0.3, the “gastric mucosa damage index ± standard deviation: Total” value [2] was 5.2 ± 1.2 and the “gastric mucosa damage index ± standard deviation: Bleeding” value [2] was 0.7 ± 0.2. For the same molecule, the “gastric mucosa damage index ± standard deviation: Edema” value [2] was 1 ± 0.2, the “gastric mucosa damage index ± standard deviation: Flare” value [2] was 1.3 ± 0.2 and the “gastric mucosa damage index ± standard deviation: Hyperemia” value [2] was 0.9 ± 0.3. The “gastric mucosa damage index ± standard deviation: Total” value [3] was 4.4 ± 1.1, the “gastric mucosa damage index ± standard deviation: Bleeding” value [3] was 0.9 ± 0.2 and the “gastric mucosa damage index ± standard deviation: Edema” value [3] was 1 ± 0.3. The “gastric mucosa damage index ± standard deviation: Erosion” value [3] was 0.5 ± 0.1, the “gastric mucosa damage index ± standard deviation: Flare” value [3] was 1.1 ± 0.2 and the “gastric mucosa damage index ± standard deviation: Hyperemia” value [3] was 0.9 ± 0.3. For the same molecule, the “Acidity in the stomach of rats (pH ± standard deviation)” value (shortened to “Acidity … (pH ± standard deviation)”) ([4]; 5 mg/kg oral) was 3.3 ± 0.1 pH, the “Acidity … (pH ± standard deviation)” value ([4]; 15 mg/kg oral) was 4.3 ± 0.8 pH and the “Acidity … (pH ± standard deviation)” value ([4]; 45 mg/kg oral) was 5.2 ± 0.6 pH. For the same molecule, the “clinical manifestation or death” value (Sprague-Dawley rats; once at a dosage of 400 mg/kg) was “no noticeable clinical manifestation or death”, the “toxicity in body weight change, hematological and serum biochemical analysis and autopsy” value (Sprague-Dawley rats; once at a dosage of 400 mg/kg) was “no toxicity was found” and the “minimum oral administration lethal dose (LD50)” value (Sprague-Dawley rats; single administration) was ≥ 400 mg/kg.
For `O=C(NC(Cc1cc(=O)[nH]c2ccccc12)C(=O)O)c1ccc(Cl)cc1` (stereo not drawn) [Mucosta, rebamipide], the “gastric mucosa damage index ± standard deviation: Erosion” value [1] was 2.2 ± 0.4, the “gastric mucosa damage index ± standard deviation: Total” value [2] was 8.5 ± 1.5 and the “gastric mucosa damage index ± standard deviation: Bleeding” value [2] was 1.5 ± 0.3. For the same molecule, the “gastric mucosa damage index ± standard deviation: Edema” value [2] was 1.2 ± 0.1, the “gastric mucosa damage index ± standard deviation: Flare” value [2] was 2.3 ± 0.3 and the “gastric mucosa damage index ± standard deviation: Hyperemia” value [2] was 1.3 ± 0.4. The “gastric mucosa damage index: Total” value [5] was 9.8 ± 1.2, the “gastric mucosa damage index: Bleeding” value ([5]; points 0 to 3) was 1.4 ± 0.5 and the “gastric mucosa damage index: Edema” value ([5]; points 0 to 3) was 1.2 ± 0.2. The “gastric mucosa damage index: Erosion” value ([5]; points 0 to 3) was 2.4 ± 0.4, the “gastric mucosa damage index: Flare” value ([5]; points 0 to 3) was 2.6 ± 0.2 and the “gastric mucosa damage index: Hyperemia” value ([5]; points 0 to 3) was 2.2 ± 0.4. For the same molecule, the “gastric mucosa damage index: Total” value [6] was 7.4 ± 0.7, the “gastric mucosa damage index: Bleeding” value ([6]; points 0 to 3) was 1.2 ± 0.2 and the “gastric mucosa damage index: Edema” value ([6]; points 0 to 3) was 2.2 ± 0.2. The “gastric mucosa damage index: Erosion” value ([6]; points 0 to 3) was 2.4 ± 0.2, the “gastric mucosa damage index: Flare” value ([6]; points 0 to 3) was 0.8 ± 0.4 and the “gastric mucosa damage index: Hyperemia” value ([6]; points 0 to 3) was 0.8 ± 0.4. The “gastric mucosa damage index: Total” value [7] was 8.1 ± 0.8, the “gastric mucosa damage index: Bleeding” value ([7]; points 0 to 3) was 1.5 ± 0.2 and the “gastric mucosa damage index: Edema” value ([7]; points 0 to 3) was 1.3 ± 0.2. For the same molecule, the “gastric mucosa damage index: Erosion” value ([7]; points 0 to 3) was 1.8 ± 0.2, the “gastric mucosa damage index: Flare” value ([7]; points 0 to 3) was 1.3 ± 0.2 and the “gastric mucosa damage index: Hyperemia” value ([7]; points 0 to 3) was 1.3 ± 0.4. For the same molecule, the “gastric mucosa damage index ± standard deviation: Total” value [3] was 6.1 ± 1.2, the “gastric mucosa damage index ± standard deviation: Bleeding” value [3] was 1.4 ± 0.2 and the “gastric mucosa damage index ± standard deviation: Edema” value [3] was 1.2 ± 0.3. The “gastric mucosa damage index ± standard deviation: Erosion” value [3] was 0.9 ± 0.3, the “gastric mucosa damage index ± standard deviation: Flare” value [3] was 1.2 ± 0.2 and the “gastric mucosa damage index ± standard deviation: Hyperemia” value [3] was 1.4 ± 0.2.
